From patent US5230802A, “Extraction process using a novel organic acid as a liquid ion exchanger” (Philip Morris Incorporated, priority 1992, dated 1993)
Where “and” joins values, the source holds several entries; their conditions need not be identical. Equal entries are not always repeated. Where two headings read alike, the source gives them in different places.

Experiments:
[1] = Organic phase/aqueous phase partition coefficient of nicotine in presence of LIX (Table I); assay type: physicochemical; settings: in words; for solubility of the nicotine-LIX complex: water versus hexane
Text: As hereinbefore disclosed, two different experimental criteria can be used to measure the capability of a LIX. First, the organic phase/water phase partition coefficient (PC) can be determined. The partition coefficient, as used herein, can be defined as the ratio of the amount of a substance dissolved in one phase in relation to the amount of the substance dissolved in the second phase. Accordingly, in determining the partition coefficient in the solvent extraction of nicotine from a tobacco processing fluid to another, the ratio would be the concentration of nicotine in the organic (extraction) phase divided by the concentration of nicotine in the aqueous (process) phase. If the partition coefficient increases, i.e., more of the nicotine is soluble in the organic phase, in the presence of a LIX, then this LIX meets one of the objectives for a successful nicotine transfer agent.
Table I is a presentation of the partition coefficients of various liquid ion exchangers, including control experiments where no LIX are utilized. […] Capabilities of the LIX as well as the components of the various phases must all be considered.

[2] = 180 min; 5% LIX, 20 mM nicotine, 4 L FS; ND = None detected
Text: (§1) The apparatus used is a Model MSX-750 laboratory unit purchased from Sepracor, Inc., Marlborough, Mass.; it is a 3-panel, 3-loop, 2-membrane operation. As shown in the Figure, each panel has a solvent circulation pump (1), pressure gauge, flow rotometer, and multiple valves for control of the solvent input and output (not shown). A separate pump controller (not shown) provides variable speed and on/off controls for all three panels. Analysis ports are built into the unit to allow pH readings at the feedstock (2)- and recovery panels (3)- and automatic pH titration at the recovery solution panel. Sample aliquots can be removed from all three system solvents in line (4)- or from the reservoirs (5). The membrane modules (6) contain a hollow fiber bundle in a plastic cartridge with connectors to allow flow through the hollow fibers (lumen) with one solvent and simultaneous flow around the fibers (shell) with an "exchanging" solvent (not shown). The membrane fibers used were either regenerated cellulose (RC) or polyacrylonitrile (PAN) and were 0.5-1.5 square meters in surface area.
For this membrane separation process, solutions are recirculated at 100-900 ml/min. The feedstock reservoir volume is between 0.5 L and 8.0 L of aqueous solution which is 0.1-10.0% dissolved base, e.g., pyridine or nicotine, at a pH between 4 and 10. […]

[3] = 2% LIX in Isopar K, 1.5 m2 PAN
Text: as §1
For this membrane separation process, solutions are recirculated at 100-900 ml/min. The feedstock reservoir volume is between 0.5 L and 8.0 L of aqueous solution which is 0.1-10.0% dissolved base, e.g., pyridine or nicotine, at a pH between 4 and 10. The feedstock solution can also contain other compounds, e.g., tobacco components. The organic solvent (OS) reservoir contains from 300-1000 mL of a water-immiscible solvent like hexane, heptane, octane, nonane, decane or Isopar K (Exxon) to which is added 0.1-10.0% of LIX. The OS is recirculated in the center panel through the lumen of both membrane modules and is always kept at 2-10 psi higher than the aqueous phases to maintain phase separation. The aqueous recovery solution is maintained at a constant pH (1.0-4.0) via an automatic titration unit (Metrohm Model 665 Dosimat with Model 614 Impulsomat and Model 632 Digital-pH-Meter, Metrohm Ltd., CH-9100 Herisau, Switzerland) using 1.0 M sulfuric acid to provide a pH differential and as a collection sink for the base being transferred, e.g., pyridine or nicotine.
Seven consecutive runs were performed with the apparatus outlined in Example XII without the use of a LIX in the OS, changing to a fresh 1 liter 0.32% nicotine FS each run and leaving the RS alone to concentrate the nicotine recovered (Section A). Prior to run 8, fresh FS, OS and RS solutions were placed within the system. For the five consecutive runs 8-12, 2% LIX (Example X) in Isopar K was used as the OS, 0.32% nicotine in deionized water for FS (one liter fresh for each run), and a fresh deionized water RS was left in place for all five runs to concentrate the nicotine (Section B). The volume of the RS increased during the runs 8-12 because the nicotine was transferred into it and because acid solution was pumped into it to maintain a pH of ca. 3. Then three additional runs 13-15 were made using the same OS and the same RS (to form a more concentrated nicotine solution) from Section B; 4 L FS solutions of 0.32% nicotine in deionized water (a fresh solution each run) were used (Section C). […] The OS continues to operate without replacement.

CCCCC(CC)COC(=O)[C@H](OC(C)=O)[C@@H](OC(C)=O)C(=O)O (mixture of isomers) [Example III, (2R, 3R, 2'R)- and (2R, 3R, 2'S)-Mono(2'-Ethylhexyl) 2,3-Bis(acetyloxy)butanedioate]
partition coefficient compared with no LIX present [1]: less than without any LIX present
solubility of the nicotine-LIX complex [1]: more water soluble than hexane soluble

CCCCC(CC)COC(=O)[C@H](OC(=O)CC)[C@@H](OC(=O)CC)C(=O)O (mixture of isomers) [Example V, (2R, 3R, 2'R)- and (2R, 3R, 2'S)-Mono(2'-Ethylhexyl) 2,3-Bis(propionyloxy)butanedioate]
partition coefficient compared with no LIX present [1]: less than without any LIX present
solubility of the nicotine-LIX complex [1]: more water soluble than hexane soluble

CCCCC(CC)COC(=O)[C@H](OC(=O)C(CC)CCCC)[C@@H](OC(=O)C(CC)CCCC)C(=O)O (stereo partly drawn) [Example X, (2R, 3R, 2'.xi., 2''.xi., 2'''.xi.)-Mono(2'-Ethylhexyl) 2,3-Bis(2-ethylhexanoyloxy)butanedioate]
Percent (%) remaining in FS [2]: 10.0%
Percent (%) nicotine remaining in FS ([3]; Section B, 0 min, 1 liter FS at 0.32% nicotine): 100%
Percent (%) nicotine remaining in FS ([3]; Section B, 15 min, 1 liter FS at 0.32% nicotine): 49% and 50%
Percent (%) nicotine remaining in FS ([3]; Section B, 30 min, 1 liter FS at 0.32% nicotine): 37% and 36% and 35%
Percent (%) nicotine remaining in FS ([3]; Section B, 45 min, 1 liter FS at 0.32% nicotine): 23% and 24%
Percent (%) nicotine remaining in FS ([3]; Section B, 60 min, 1 liter FS at 0.32% nicotine): 14% and 13%
Percent (%) nicotine remaining in FS ([3]; Section C, 0 min, 4 liters FS at 0.32% nicotine): 100%
Percent (%) nicotine remaining in FS ([3]; Section C, 60 min, 4 liters FS at 0.32% nicotine): 51%
Percent (%) nicotine remaining in FS ([3]; Section C, 120 min, 4 liters FS at 0.32% nicotine): 35% and 37%
Percent (%) nicotine remaining in FS ([3]; Section C, 180 min, 4 liters FS at 0.32% nicotine): 21% and 23%
Percent (%) nicotine remaining in FS ([3]; Section C, 240 min, 4 liters FS at 0.32% nicotine): 13%
